{
  "source": "patent US20070191493A1",
  "about": "“Use of n-alkanols as activators of the cftr channel” (priority 2003, published 2007)",
  "molecular_target": "T1, human CFTR channel endogenously expressed in Calu-3 (Homo sapiens, UniProt P13569)",
  "T1 construct": "human pulmonary epithelial cells endogenously expressing the CFTR channel; host or cells: Calu-3 human pulmonary epithelial cells",
  "T1 sequence (P13569 whole entry)": "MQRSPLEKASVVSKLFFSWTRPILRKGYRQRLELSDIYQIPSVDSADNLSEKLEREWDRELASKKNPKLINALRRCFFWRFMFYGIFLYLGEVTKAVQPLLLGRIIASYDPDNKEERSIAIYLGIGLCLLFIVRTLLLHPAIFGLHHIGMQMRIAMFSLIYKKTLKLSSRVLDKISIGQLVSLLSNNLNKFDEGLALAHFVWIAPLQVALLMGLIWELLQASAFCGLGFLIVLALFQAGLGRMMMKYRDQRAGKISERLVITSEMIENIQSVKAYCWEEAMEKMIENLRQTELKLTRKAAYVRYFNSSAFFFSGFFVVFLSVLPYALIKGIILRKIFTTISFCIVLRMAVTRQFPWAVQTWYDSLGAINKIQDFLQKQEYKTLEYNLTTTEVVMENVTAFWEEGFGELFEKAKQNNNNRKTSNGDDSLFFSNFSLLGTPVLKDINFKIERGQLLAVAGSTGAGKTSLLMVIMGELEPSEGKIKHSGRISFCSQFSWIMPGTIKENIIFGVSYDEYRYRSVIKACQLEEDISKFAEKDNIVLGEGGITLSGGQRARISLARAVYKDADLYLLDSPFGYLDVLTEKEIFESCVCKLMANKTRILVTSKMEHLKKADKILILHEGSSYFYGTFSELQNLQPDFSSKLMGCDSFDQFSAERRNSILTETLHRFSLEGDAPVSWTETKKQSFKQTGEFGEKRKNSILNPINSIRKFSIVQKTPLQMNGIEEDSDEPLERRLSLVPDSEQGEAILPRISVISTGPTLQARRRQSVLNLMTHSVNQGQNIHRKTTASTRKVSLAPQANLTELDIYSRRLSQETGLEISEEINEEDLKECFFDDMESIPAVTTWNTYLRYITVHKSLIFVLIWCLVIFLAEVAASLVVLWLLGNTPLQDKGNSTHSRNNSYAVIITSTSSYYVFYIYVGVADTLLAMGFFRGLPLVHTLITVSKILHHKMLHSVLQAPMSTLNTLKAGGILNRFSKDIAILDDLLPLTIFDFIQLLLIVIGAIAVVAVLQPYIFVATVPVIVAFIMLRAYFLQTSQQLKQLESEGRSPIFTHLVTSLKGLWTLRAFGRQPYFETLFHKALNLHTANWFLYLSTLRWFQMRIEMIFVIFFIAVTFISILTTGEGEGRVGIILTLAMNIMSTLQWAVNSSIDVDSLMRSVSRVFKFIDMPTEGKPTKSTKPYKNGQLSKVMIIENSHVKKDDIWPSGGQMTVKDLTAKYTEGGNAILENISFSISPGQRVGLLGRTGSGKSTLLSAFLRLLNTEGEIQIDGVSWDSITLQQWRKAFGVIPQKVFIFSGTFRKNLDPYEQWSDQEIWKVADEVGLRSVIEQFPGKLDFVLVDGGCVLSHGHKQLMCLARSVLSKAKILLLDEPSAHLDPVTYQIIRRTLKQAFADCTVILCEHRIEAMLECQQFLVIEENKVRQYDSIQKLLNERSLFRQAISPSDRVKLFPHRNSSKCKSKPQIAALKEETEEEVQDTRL",
  "test": "iodide efflux in Calu-3 human bronchial epithelial cells",
  "assay_type": "cell-based",
  "details": "for EC50: Calu-3 cells, read-out: half-effect concentration (EC50)",
  "experimental": "The CFTR studies are also carried out on Calu-3 cells (ATCC No. HTB-55), which are human pulmonary epithelial cells endogenously expressing the CFTR channel. These cells are cultured under the same culture conditions as the CHO cells. The study of the mutated CFTR channel is carried out on JME/CF15 cells, which are epithelial cells extracted from respiratory airways of patients suffering from cystic fibrosis (homozygous ΔF508) (Jefferson et al., 1990). These cells therefore express the ΔF508 mutated CFTR channel. These cells are cultured under the same conditions as above, but the culture medium is supplemented with a hormone mixture containing: adenine (180 μM), insulin (5 μg/ml), transferrin (5 μg/ml), hydrocortisone (1.1 μM), triiodothyronine (2 nM), epinephrine (5.5 μM), epidermal growth factor (1.64 nM).\nThis technique makes it possible to follow the kinetics of exit of the ^125I radioactive iodide. The cells are cultured in 24-well plates with a dilution to 1/10 after passage. On the fourth day of culture, the drugs to be tested are dissolved in solution according to the desired concentration, at 37° C., in medium B, at pH 7.4, containing, in mM: 137 NaCl, 5.36 KCl, 0.8 mM MgCl2, 1.8 mM CaCl2, 5.5 glucose and 10 HEPES-NaOH. The wells are washed 4 times with 500 μl of medium B. The solution is subsequently replaced with 500 μl of loading solution containing 1 μM KI and 0.5 μCi of ^125INa/ml for 30 min. The kinetics of exit of ^125I are determined after having eliminated the loading solution and washed the wells 4 times with 500 μl of medium B. For the ^125I exit kinetics, 500 μl of medium B containing or not containing the molecules to be tested are incubated for 30 sec in the wells and recovered in a hemolysis tube, so as to be replaced with 500 μl of medium B containing or not containing the molecules to be tested. The operation is repeated every 30 s for 2 to 6 min. At the end of the efflux, the intracellular ions are extracted by adding 1 ml of trichloroacetic acid (7.5%) to the cell layer. All the samples are counted in a gamma counter (Kontron). The precipitated proteins are solubilized in 0.1N NaOH and quantified using a calorimetric test.\nThe tracer contained in the cell layer at the beginning of the efflux is calculated as the sum of the samples and of the extracts counted. The efflux curves are constructed by expressing the percentage of the content remaining in the cell layer (I %) with respect to time. The stimulated or nonstimulated efflux rate constants (k, min^−1) are determined by smoothing the efflux curves to a monoexponential function I %=100*exp(−kt) using a linear regression of the neperian logarithm of the data, k is used to calculate the iodide released into the medium with respect to time. The hypothesis is made that, in the presence of a stimulator, the efflux is the sum of two iodide effluxes occurring in parallel: a basal efflux and a stimulated efflux characterized, respectively, by the constants kb and ks. The total net efflux is then described by the equation It^%=100*(1−exp(−ktt)) where kt is the sum of kb and ks. Finally, ks calculated as kt−kb is used to establish a dose-response relationship for antagonists. The data is expressed as means ±SD, and the t-test is used to determine the significances. […] Y begins at the basal level and progresses to the plateau (Ymax), X is the concentration and the half-effect values (EC are calculated using GraphPad Prism v3.0 (GraphPad software)).",
  "note": "Read-outs that look alike come from different tables or passages of the source.",
  "data": [
    {"smiles": "CCCCCCCCO", "note": "[octan-1-ol]", "values": [
      {"measurement": "EC50", "setting": "in the absence of FSK", "result": 1140, "unit": "µM"},
      {"measurement": "EC50", "setting": "in the presence of FSK (1 μM)", "result": 512, "unit": "µM"},
      {"measurement": "activation of iodide efflux in Calu-3 cells, in words", "setting": "octan-1-ol 0.1 to 10 mM, FSK 1 μM", "result": "activates the exit of iodide"}
    ]}
  ]
}
